Laboratory results from patent publication US20180237358A1, “RADIOISOTOPE 18F SUBSTITUTED THIAMINE, AND SYNTHESIS METHOD AND USE THEREOF” (ZHONGSHAN HOSPITAL FUDAN UNIVERSITY, priority 2015, published 2018).
Several values for one entry are separate records, joined by “and”; a condition that tells them apart may be missing. Equal entries are not always repeated.

How the values were obtained:
[1] = small animal PET/CT scan of two strains of mice (summary statement); assay type: in vivo, mice (ICR and C57BL/6); settings: ICR and C57BL/6 mice
Source text: is successfully substituted with ^18F atom, and a fluorine-substituted thiamine (Formula I) and a hydrobromide thereof (Formula II) are synthesized. Subsequently, the present inventors scan two strains of mice (ICR and C57BL/6) using the small animal PET/CT.

[2] = PET/CT scan of C57BL/6 mice with ^18F substituted thiamine as tracer, whole brain ROI (SUV, TAC); assay type: in vivo
Source text: 1. Experiments on Scanning of C57BL/6 Mice by Using ^18F Substituted Thiamine as a PET/CT Tracer.
(§1) 1.1. Experimental Drug: ^18F Substituted Thiamine (Synthesized and Identified as in Example 1).
(§2) 1.2. Animals and treatments: 8-week-old C57BL/6 mice, SPF grade, purchased from Shanghai SLAC Laboratory Animal Co., Ltd, were housed in a barrier environment and assigned to a treatment group and a control group, randomly. The animals in the treatment group were fed with thiamine deficient diet (n=2), and the animals in the control group were fed with normal diet (n=3). After 28 days, PET/CT scan of the mice was performed.
1.3. PET/CT scan of the mice: Small animal PET/CT scanner (Inveon, Siemens), thickness of PET layer: 0.78 mm, 128*128 matrix, energy window: 350-650 kev, CT tube current: 500 uA, tube voltage: 80 kv; scan mode: dynamic scan; scan time: 90 min.
(§3) 1.4. Processing of PET/CT image: After the acquisition, the images were reconstructed with two iterations of 3D OSEM. The whole brain was delimited as the region of interest (ROI) by the image processing software coming with the Inveon small animal PET/CT scanner. The SUV and TAC within 90 min were calculated.

[3] = PET/CT scan of ICR mice with ^18F substituted thiamine as tracer, whole brain ROI (SUV, TAC); assay type: in vivo; settings: control group ICR mice (normal diet), two mice
[4] = as above; assay type: in vivo
Source text: 1. Experiments on Scanning of ICR Mice by Using ^18F Substituted Thiamine as a PET/CT Tracer.
as §1
as §2, with “ICR” for “C57BL/6”, “group” for “group,”, “(n=3),” for “(n=2),”
1.3. PET/CT scan of the mice: small animal PET/CT scanner (Inveon, Siemens) thickness of PET layer: 0.78 mm, 128*128 matrix, energy window: 350-650 kev, CT tube current: 500 uA, tube voltage: 80 kv; scan mode: dynamic scan; scan time: 90 min.
as §3, with “Standard uptake value (SUV)” for “SUV”

Row | SMILES | uptake in the brain of thiamine-deficient model mice versus control mice [1] | blood-brain barrier penetration ([1]; small animal PET/CT) | uptake in the brains of thiamine-deficient mice versus control (images) ([2]; C57BL/6 mice, FIGS. 12 and 13) | SUV value at absorption peak in the brain ([2]; control group C57BL/6 mice (normal diet), individual mice) | SUV value at peak of accumulation in the brain ([2]; thiamine-deficient group C57BL/6 mice, individual mice, at 90 min) | time of peak of accumulation in the brain ([2]; thiamine-deficient group C57BL/6 mice, two mice, rose continuously over 90 min) | SUV value at absorption peak in the brain [3] | time of absorption peak in the brain [3] | uptake in the brains of thiamine-deficient group versus control (images) ([4]; ICR mice, FIGS. 8 and 9) | SUV value at peak of absorption in the brain ([4]; thiamine-deficient group ICR mice, individual mice) | time of peak of absorption in the brain ([4]; thiamine-deficient group ICR mice, individual mice, 90 min dynamic scan)
1 | Br.Cc1ncc(C[n+]2csc(CC[18F])c2C)c(N)n1.[Br-] [^18F substituted thiamine hydrobromide] | significantly higher | successfully penetrates the blood-brain barrier |  |  |  |  |  |  |  |  | 
2 | Cc1ncc(C[n+]2csc(CC[18F])c2C)c(N)n1 [^18F substituted thiamine, 3-[(4-Amino-2-methylpyrimidin-5-yl)methyl]-5-(2-fluoroethyl)-4-methylthiazolium] |  |  | obviously increased | 0.17 and 0.25 and 0.3 | 0.48 and 0.55 | 90 min | 0.18 and 0.36 | about 20 min | obviously increased | 0.98 and 0.97 and 0.61 | 22.5 min and 35 min and 65 min
